In data set [1] the target is T1, Cytochrome P450 4F2 (Homo sapiens, UniProt P78329).
T1 sequence (P78329 whole entry): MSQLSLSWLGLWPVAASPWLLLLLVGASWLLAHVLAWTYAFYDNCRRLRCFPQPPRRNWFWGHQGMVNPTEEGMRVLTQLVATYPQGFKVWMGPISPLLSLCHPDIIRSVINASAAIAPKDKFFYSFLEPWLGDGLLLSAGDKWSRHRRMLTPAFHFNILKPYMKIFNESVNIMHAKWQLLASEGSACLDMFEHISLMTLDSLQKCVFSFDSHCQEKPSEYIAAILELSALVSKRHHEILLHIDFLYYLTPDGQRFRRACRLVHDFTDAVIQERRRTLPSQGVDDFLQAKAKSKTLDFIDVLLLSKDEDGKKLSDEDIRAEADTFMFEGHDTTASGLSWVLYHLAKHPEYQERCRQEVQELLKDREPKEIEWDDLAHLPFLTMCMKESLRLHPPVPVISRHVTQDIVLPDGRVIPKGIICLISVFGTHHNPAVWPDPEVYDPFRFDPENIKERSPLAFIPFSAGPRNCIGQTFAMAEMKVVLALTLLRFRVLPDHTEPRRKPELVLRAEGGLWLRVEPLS
As to the kind of experiment: Inhibition of human CYP4F2 in human liver microsomes assessed as fingolimod metabolism. In kind it is ADME. On the technique in general: Liver microsomes are a subcellular fraction often used to study metabolism.

In data set [2] the target is T1, Cytochrome P450 4F2. The experiment in a line: Inhibition of human recombinant CYP4F2 assessed as fingolimod metabolism. The data set is classed as ADME.
A short description of data set [3]: Retention time of the compound by long gradient-based HPLC-RA analysis. In kind it is physicochemical.
Data set [4] has as its target T1, Cytochrome P450 4F2. The experiment in a line: Activity at human recombinant CYP4F2 expressed in baculovirus-infected BTI-TN-5B1-4 insect cell microsomes assessed as relative abundance of compound formation treated with [14C]fingolimod at 100 uM after 30 mins by HPLC-RA analysis. In kind it is ADME. As to conditions: bti-tn-5b1-4, 0.5 h.
The target of data set [5] is Cytochrome P450 4F3 (Homo sapiens, UniProt Q08477). As to the kind of experiment: Activity at human recombinant CYP4F3B expressed in baculovirus-infected BTI-TN-5B1-4 insect cell microsomes assessed as relative abundance of compound formation treated with [14C]fingolimod at 100 uM after 30 mins by HPLC-RA analysis. In kind it is ADME. As to conditions: bti-tn-5b1-4, 0.5 h.
Cytochrome P450 4F3, sequence (Q08477 whole entry): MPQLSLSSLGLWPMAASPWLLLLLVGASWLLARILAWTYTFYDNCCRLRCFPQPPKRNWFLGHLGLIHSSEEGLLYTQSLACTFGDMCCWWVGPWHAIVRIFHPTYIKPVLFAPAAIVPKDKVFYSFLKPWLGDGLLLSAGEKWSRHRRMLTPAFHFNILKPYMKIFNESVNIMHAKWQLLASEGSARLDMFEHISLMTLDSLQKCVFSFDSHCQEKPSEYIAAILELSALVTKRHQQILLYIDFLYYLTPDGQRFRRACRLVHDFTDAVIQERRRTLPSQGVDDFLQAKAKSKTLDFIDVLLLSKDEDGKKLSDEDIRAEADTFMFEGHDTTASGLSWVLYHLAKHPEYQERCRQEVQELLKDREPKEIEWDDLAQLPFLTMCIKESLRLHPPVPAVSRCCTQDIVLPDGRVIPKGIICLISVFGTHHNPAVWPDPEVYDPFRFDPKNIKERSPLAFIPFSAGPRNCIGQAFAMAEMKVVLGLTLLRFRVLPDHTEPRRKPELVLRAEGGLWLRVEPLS

Data set [6] deals with Cytochrome P450 2D6 (Homo sapiens, UniProt P10635). As to the kind of experiment: Activity at human recombinant CYP2D6 expressed in baculovirus-infected BTI-TN-5B1-4 insect cell microsomes assessed as relative abundance of compound formation treated with [14C]fingolimod at 20 uM after 30 mins by HPLC-RA analysis. The data set is classed as ADME. As to conditions: bti-tn-5b1-4, 0.5 h.
Cytochrome P450 2D6, sequence (P10635 whole entry): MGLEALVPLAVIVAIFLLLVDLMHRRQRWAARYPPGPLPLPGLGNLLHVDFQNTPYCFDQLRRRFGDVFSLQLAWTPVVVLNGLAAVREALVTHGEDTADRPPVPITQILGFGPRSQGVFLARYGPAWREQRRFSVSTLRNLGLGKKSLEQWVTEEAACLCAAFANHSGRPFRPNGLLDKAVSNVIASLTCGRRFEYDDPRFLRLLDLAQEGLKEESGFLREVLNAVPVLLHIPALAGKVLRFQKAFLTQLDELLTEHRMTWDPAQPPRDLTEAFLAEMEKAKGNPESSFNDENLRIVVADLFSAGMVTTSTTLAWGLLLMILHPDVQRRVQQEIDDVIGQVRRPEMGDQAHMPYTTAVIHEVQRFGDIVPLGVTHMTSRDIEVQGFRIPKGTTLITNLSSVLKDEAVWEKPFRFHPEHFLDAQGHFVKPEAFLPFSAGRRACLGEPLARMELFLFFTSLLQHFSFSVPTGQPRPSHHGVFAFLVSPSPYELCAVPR

Data set [7] can be described thus: Retention time of the compound by C18 advantage armor column based LC-MS analysis. The data set is classed as physicochemical.
A short description of data set [8]: Retention time of the compound by symmetry C18 column based LC-MS analysis. In kind it is physicochemical.
Data set [9] can be described thus: Terminal half life in human. As to conditions: in vivo, read-out: beta t1/2 (converted). Further details: dosed compound name Fingolimod. The data set is classed as ADME, organism-based.
Substrate in data set [10]: CCCCCCCCc1ccc(CCC(N)(CO)CO)cc1
As to the kind of experiment: Activity at human recombinant CYP4F2 expressed in baculovirus-infected BTI-TN-5B1-4 insect cell microsomes assessed as metabolite formation after 15 mins by Eadie-Hofstee plot analysis. The data set is classed as ADME.

In general, Ki refers to a dissociation constant, usually derived from enzyme kinetics or from competition with a known ligand. For orientation: IC50 means the point on the concentration scale where inhibition reaches its midpoint. The term Km denotes the substrate concentration at which the rate is half of its maximum. A word on the Vmax: it is the rate approached at saturating substrate.

As for `CC(=O)N1CCN(c2ccc(OCC3COC(Cn4ccnc4)(c4ccc(Cl)cc4Cl)O3)cc2)CC1` (stereo unspecified) [KETOCONAZOLE], the Ki in data set [1] came to 740 nM. For the same molecule, the IC50 in data set [2] is 1600 nM.
Take `NC(CO)(CO)CCc1ccc(CCCCCCCCO)cc1`: the Retention_time in [3] amounted to 34.7 min; in [7] it was 35.4 min; in [8], 32.1 min. Moreover, the Compound recovery in data set [4] is on record as 2.99%; in data set [5], 0.84%; in data set [6], 1.02%.
With `CCCCCCCCc1ccc(CCC(N)(CO)CO)cc1` [FINGOLIMOD], the half-life in data set [9] is 120 h.

B1: Cytochrome P450 4F2 (Homo sapiens) (protein)
chain: T1 sequence (P78329 whole entry)
Regarding B1, in data set [10], the Km is 45 µM and the maximum rate (Vmax) was 0.00105 µmol/min.

For the origin of these results see ChEMBL document CHEMBL3525920, “CYP4F enzymes are responsible for the elimination of fingolimod (FTY720), a novel treatment of relapsing multiple sclerosis” (Drug Metab Dispos, 2011).
